Like-named read-outs stand apart in the source and are kept apart here.
Columns and labels:
Assay type in all cases: physicochemical
[1] = physical stability of the perfusion solution (no visible precipitation); settings: perfusion solution from compound of formula (I) in PEG alone
[2] = solubility of the compound of formula (I) in media and formulations
[3] = chemical stability of formulations: impurity content by HPLC over time; settings: versus PS80 and PS80/ethanol formulations; especially 25° C./60% RH and 30° C./65% RH
Description: A study of chemical stability by measuring the impurity content by high performance liquid chromatography (HPLC) was carried out on the formulations making it possible to achieve the target solubility.

CC(C)(C)NC(=O)Nc1nc2nc(Nc3ccc4nsnc4c3)ncc2cc1-c1c(Cl)cccc1Cl [compound of formula (I)]
physical stability of the perfusion solution [1]: < 24 h | solubility ([2]; medium: PEG 400): 9.5 mg/g | solubility ([2]; medium: ethanol): 3.8 mg/g | solubility ([2]; medium: propylene glycol): 1 mg/g | solubility ([2]; medium: tert-butanol): 1.2 mg/g | solubility ([2]; medium: water): <0.006 mg/g | solubility ([2]; organic solvent or mixture, dilution in PEG alone, read-out: solubility): ≤ 7000 µg/mL | chemical stability compared between formulations [3]: degrades less rapidly

— patent US20120202831A1, “Pharmaceutical Formulation” (SANOFI, priority 2009, published 2012)
